Columns and labels:
[1] = biological target: Gamma-aminobutyric acid receptor subunit alpha-1/alpha-2/beta-2/gamma-2 (Homo sapiens, UniProt P14867+P18507+P47869+P47870); assay type: functional, cell-based
Estrogen receptor = biological target: T1, Estrogen receptor (Homo sapiens, UniProt P03372); assay type: functional
T1 sequence (P03372 whole entry): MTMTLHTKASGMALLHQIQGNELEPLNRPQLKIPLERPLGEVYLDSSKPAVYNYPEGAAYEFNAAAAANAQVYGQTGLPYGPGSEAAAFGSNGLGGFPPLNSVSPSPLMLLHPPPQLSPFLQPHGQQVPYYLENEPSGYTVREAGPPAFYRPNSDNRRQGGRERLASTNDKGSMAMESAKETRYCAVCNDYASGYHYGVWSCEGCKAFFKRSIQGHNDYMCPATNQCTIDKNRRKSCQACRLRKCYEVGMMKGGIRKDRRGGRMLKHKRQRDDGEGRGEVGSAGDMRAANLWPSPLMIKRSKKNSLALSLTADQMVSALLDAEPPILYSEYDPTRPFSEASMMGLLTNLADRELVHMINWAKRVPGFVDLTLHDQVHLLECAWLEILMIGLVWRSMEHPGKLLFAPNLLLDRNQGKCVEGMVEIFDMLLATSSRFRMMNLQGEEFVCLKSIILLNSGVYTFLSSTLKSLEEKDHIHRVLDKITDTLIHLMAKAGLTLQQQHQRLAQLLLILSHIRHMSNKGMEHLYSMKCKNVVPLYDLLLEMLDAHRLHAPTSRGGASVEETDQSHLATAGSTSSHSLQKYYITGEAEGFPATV

Androgen receptor = biological target: T2, Androgen receptor (Homo sapiens, UniProt P10275)
T2 sequence (P10275 whole entry): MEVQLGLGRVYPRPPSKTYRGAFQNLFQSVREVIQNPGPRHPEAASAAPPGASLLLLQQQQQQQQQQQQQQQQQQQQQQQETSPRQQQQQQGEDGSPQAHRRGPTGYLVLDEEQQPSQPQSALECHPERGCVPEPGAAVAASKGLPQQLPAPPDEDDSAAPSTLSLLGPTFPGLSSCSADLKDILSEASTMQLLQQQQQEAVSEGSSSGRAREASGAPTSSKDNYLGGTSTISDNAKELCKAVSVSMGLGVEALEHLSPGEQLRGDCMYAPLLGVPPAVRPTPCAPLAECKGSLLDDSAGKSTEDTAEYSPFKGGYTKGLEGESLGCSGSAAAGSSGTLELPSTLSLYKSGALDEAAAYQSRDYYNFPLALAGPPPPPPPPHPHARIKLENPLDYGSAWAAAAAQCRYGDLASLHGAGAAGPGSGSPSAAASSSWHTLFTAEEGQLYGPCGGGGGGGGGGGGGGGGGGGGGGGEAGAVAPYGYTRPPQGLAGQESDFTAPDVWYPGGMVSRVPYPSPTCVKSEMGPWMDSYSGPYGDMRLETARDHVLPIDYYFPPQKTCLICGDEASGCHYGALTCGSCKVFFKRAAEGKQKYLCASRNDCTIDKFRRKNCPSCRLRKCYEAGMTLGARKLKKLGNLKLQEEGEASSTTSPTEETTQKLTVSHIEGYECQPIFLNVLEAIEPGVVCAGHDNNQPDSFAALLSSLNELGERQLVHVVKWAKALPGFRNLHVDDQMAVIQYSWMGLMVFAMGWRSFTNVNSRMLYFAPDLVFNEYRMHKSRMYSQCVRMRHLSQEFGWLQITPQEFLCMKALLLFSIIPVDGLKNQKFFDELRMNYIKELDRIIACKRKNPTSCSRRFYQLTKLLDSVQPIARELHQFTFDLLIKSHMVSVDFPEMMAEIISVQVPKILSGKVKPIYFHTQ

D(1A) dopamine receptor = D(1A) dopamine receptor (Homo sapiens, UniProt P21728)
Glucagon receptor = Glucagon receptor (Homo sapiens, UniProt P47871)
[2] = biological target: T3, Muscarinic acetylcholine receptor M2 (Homo sapiens, UniProt P08172)
T3 sequence (P08172 whole entry): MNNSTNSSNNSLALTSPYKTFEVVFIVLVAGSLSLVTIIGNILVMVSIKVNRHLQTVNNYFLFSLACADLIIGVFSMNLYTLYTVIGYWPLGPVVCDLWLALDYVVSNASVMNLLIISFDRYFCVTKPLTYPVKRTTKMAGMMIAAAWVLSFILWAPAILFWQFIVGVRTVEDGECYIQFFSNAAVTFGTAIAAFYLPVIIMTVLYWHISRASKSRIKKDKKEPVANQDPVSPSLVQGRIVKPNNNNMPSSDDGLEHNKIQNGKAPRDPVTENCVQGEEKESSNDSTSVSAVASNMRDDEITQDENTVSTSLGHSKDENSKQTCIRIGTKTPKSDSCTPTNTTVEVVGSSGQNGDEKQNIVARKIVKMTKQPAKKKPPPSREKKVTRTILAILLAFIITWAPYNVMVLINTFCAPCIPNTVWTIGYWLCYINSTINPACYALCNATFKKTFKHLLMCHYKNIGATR

[3] = biological target: T4, 5-hydroxytryptamine receptor 1A (Homo sapiens, UniProt P08908)
T4 sequence (P08908 whole entry): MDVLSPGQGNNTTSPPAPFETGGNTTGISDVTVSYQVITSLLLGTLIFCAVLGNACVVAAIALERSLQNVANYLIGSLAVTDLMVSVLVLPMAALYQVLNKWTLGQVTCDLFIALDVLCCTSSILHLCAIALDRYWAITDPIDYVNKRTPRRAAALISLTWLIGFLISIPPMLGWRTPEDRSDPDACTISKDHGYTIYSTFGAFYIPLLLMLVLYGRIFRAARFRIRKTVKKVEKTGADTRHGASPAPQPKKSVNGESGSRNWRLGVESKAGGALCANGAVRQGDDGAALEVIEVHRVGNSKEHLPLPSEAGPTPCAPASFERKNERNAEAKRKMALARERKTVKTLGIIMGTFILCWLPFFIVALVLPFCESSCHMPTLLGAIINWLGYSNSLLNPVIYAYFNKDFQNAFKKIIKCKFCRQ
Also: assay procedure not described here.

Glucagon receptor, sequence (P47871 whole entry): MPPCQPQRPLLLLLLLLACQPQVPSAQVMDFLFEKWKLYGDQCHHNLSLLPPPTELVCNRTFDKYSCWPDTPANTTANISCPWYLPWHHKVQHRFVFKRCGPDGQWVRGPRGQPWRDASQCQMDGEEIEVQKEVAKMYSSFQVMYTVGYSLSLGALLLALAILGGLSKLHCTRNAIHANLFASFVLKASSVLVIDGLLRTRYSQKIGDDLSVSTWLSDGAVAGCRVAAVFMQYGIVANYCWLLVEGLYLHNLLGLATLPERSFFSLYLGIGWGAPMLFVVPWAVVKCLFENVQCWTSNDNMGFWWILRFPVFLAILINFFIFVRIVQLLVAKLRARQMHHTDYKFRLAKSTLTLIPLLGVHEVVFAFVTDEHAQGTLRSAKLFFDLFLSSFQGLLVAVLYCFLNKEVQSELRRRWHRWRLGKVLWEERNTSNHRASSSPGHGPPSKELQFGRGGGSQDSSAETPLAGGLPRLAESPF
Gamma-aminobutyric acid receptor subunit alpha-1/alpha-2/beta-2/gamma-2, sequence (P14867 whole entry): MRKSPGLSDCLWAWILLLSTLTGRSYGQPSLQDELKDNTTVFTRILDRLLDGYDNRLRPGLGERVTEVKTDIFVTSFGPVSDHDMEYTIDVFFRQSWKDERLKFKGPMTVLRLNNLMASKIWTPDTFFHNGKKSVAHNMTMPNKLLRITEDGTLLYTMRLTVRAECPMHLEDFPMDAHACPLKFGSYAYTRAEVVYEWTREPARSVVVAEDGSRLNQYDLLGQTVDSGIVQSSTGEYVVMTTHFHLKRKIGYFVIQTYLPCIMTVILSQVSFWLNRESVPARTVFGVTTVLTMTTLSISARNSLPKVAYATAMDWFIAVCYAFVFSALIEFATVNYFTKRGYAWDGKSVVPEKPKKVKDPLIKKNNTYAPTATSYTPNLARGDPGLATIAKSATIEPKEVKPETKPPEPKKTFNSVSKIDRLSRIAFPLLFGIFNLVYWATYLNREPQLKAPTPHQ
Gamma-aminobutyric acid receptor subunit alpha-1/alpha-2/beta-2/gamma-2, sequence (P47870 whole entry): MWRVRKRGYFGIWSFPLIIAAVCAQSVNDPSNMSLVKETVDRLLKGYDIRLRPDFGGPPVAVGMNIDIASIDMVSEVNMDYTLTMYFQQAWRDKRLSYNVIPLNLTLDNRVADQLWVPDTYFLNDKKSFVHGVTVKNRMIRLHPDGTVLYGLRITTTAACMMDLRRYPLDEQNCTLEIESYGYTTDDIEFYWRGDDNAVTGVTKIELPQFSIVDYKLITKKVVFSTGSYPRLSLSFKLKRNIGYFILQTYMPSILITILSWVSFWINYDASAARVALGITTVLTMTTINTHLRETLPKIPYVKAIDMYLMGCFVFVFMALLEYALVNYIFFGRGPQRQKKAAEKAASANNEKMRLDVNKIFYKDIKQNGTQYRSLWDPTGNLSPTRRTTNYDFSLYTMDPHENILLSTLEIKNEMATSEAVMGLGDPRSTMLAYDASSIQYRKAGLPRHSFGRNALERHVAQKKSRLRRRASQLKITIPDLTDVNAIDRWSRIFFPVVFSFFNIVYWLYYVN
Gamma-aminobutyric acid receptor subunit alpha-1/alpha-2/beta-2/gamma-2, sequence (P18507 whole entry): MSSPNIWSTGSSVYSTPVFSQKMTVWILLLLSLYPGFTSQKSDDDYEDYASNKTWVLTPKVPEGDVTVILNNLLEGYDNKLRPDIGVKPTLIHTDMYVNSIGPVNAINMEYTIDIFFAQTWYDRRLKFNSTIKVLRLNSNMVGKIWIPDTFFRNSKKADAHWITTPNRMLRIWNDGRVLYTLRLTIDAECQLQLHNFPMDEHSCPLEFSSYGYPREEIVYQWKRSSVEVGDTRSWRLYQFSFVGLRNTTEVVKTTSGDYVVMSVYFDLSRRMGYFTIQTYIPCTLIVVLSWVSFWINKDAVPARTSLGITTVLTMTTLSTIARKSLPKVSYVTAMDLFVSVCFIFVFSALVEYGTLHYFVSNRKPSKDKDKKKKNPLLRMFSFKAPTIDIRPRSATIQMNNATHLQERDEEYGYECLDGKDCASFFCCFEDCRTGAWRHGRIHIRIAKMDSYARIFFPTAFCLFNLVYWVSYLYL
Gamma-aminobutyric acid receptor subunit alpha-1/alpha-2/beta-2/gamma-2, sequence (P47869 whole entry): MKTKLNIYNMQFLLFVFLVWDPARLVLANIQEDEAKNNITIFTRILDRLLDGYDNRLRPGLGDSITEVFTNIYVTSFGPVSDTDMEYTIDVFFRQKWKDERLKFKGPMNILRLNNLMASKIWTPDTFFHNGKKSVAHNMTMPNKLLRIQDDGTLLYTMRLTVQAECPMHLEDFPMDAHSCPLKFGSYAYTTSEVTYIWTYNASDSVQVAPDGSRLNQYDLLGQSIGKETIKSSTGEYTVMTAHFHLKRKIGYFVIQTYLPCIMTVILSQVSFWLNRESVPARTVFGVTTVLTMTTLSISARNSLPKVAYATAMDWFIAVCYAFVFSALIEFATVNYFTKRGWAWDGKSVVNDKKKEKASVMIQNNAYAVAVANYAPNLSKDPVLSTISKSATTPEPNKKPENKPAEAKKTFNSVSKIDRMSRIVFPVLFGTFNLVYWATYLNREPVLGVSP
D(1A) dopamine receptor, sequence (P21728 whole entry): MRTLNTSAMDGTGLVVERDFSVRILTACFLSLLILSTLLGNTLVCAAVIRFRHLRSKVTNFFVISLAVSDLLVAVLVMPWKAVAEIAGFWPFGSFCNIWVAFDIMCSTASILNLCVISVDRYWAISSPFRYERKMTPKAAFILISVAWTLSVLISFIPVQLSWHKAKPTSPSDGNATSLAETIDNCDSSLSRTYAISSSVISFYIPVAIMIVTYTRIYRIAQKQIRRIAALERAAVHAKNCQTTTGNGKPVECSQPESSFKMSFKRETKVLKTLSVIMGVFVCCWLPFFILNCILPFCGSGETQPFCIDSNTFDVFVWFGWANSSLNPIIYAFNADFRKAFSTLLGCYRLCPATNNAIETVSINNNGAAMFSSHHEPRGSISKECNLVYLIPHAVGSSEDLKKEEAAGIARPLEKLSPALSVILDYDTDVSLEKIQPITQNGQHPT

| Structure (SMILES) | AC50 [1] [µM] | AC50 (Estrogen receptor) [µM] | AC50 (Androgen receptor) [µM] | AC50 (D(1A) dopamine receptor) [µM] | AC50 (Glucagon receptor) [µM] | AC50 [2] [µM] | AC50 [3] [µM] |
| --- | --- | --- | --- | --- | --- | --- | --- |
| CN(C)CCC=C1c2ccccc2C(C)(C)c2ccccc21 | > 30 | > 30 | – | – | – | – | – |
| O=C(OCC(O)CO)c1ccccc1Nc1ccnc2cc(Cl)ccc12 (stereo not drawn) [GLAFENINE] | 17 | > 10 | > 30 | – | – | – | – |
| c1ccc([C@H]2CN3CCSC3=N2)cc1 [LEVAMISOLE] | > 30 | > 30 | – | > 30 | – | – | – |
| C[C@H]1CNCCc2ccc(Cl)cc21 [LORCASERIN] | > 30 | > 30 | – | – | – | – | – |
| CNC1Cc2ccccc2N(C)c2ccccc21 (stereo not drawn) [METAPRAMINE] | > 30 | > 30 | – | – | – | – | – |
| COc1ccc(CC(C)(C)NC[C@H](O)c2cc(O)cc3c2OCC(=O)N3)cc1 [OLODATEROL] | > 30 | > 30 | – | – | – | – | – |
| CCCN1C[C@H](CSC)C[C@@H]2c3cccc4[nH]cc(c34)C[C@H]21 [PERGOLIDE] | > 30 | > 30 | – | – | > 30 | > 10 | – |
| C1CCC(C(CC2CCCCN2)C2CCCCC2)CC1 (stereo not drawn) [PERHEXILINE] | – | > 30 | – | – | – | – | – |
| c1cnc(N2CCN(Cc3ccc4c(c3)OCO4)CC2)nc1 [PIRIBEDIL] | > 30 | > 30 | – | – | – | – | – |
| Cc1c(C(=O)NN2CCCCC2)nn(-c2ccc(Cl)cc2Cl)c1-c1ccc(Cl)cc1 [RIMONABANT] | > 30 | > 30 | – | – | > 30 | – | > 10 |
| Cn1nnc2c(C(N)=O)ncn2c1=O [TEMOZOLOMIDE] | > 30 | > 30 | – | > 10 | > 30 | > 10 | > 10 |
| N[C@@H]1[C@H]2CN(c3nc4c(cc3F)c(=O)c(C(=O)O)cn4-c3ccc(F)cc3F)C[C@@H]12 [TROVAFLOXACIN] | > 30 | > 30 | – | – | – | – | – |

Source: ChEMBL document CHEMBL5291721, “A preclinical secondary pharmacology resource illuminates target-adverse drug reaction associations of marketed drugs” (Nat Commun, 2023)
